Our source for the Activity and IC50 values is ChEMBL document CHEMBL1156646, “Natural products chemistry and taxonomy of the marine cyanobacterium Blennothrix cantharidosmum” (J Nat Prod, 2008).

SMILES strings stand for the structures. pIC50: −log10 of the molar value. Calls of active or inactive are those of the source. The calls are words filed in the database; no cut-off is given here.

In test [1] the test system is Plasmodium falciparum. The test is described as follows: Antimalarial activity against Plasmodium falciparum at 10 ug/ml. The format is functional, organism-based.
Test [2] deals with Plasmodium falciparum. The test is described as follows: Antimalarial activity against Plasmodium falciparum. The format is functional, organism-based.
The next test relates to Vibrio harveyi. The test is described as follows: Inhibition of bioluminescence in wild type Vibrio harveyi BB120 by quorum sensing assay. The format is functional, organism-based, Vibrio harveyi ATCC BAA-1116.

For `CCCCCCCC[C@H](C)C(=O)N1CCC[C@H]1C(=O)O[C@@H](C(=O)O[C@H](C(=O)O)C(C)C)C(C)C`, the outcome with Plasmodium falciparum [1] was inactive.
The same measure, in the same setting: next, `CCCCCCCC[C@H](C)C(=O)N1CCC[C@H]1C(=O)O`: “inactive”; `CCCCC(C)/C=C(\C)[C@H](O)[C@H](C)C(=O)N1CCC[C@H]1C(=O)O` (stereo partly drawn): “inactive”.
Same read-out and setting: to `CCCCCCC/C=C(\C)[C@@H](O)[C@@H](C)C(=O)N1CCC[C@H]1C(=O)O` belongs “inactive”.
Still for that read-out and setting: next, `CCCCCCCC[C@H](C)C(=O)N1CCC[C@H]1C(=O)O[C@@H](C(=O)O[C@@H](C)C(=O)O)[C@@H](C)CC`: “inactive”.
For `CCCC[C@H](C)C[C@H](C)C(=O)N1CCC[C@H]1C(=O)O[C@@H](C(=O)O[C@H](C(=O)O)[C@@H](C)CC)[C@@H](C)CC` [TUMONOIC ACID I], the pIC50 – broadly, the IC50 on a negative log10 scale, so that one unit is a factor of ten – in the test with Plasmodium falciparum [2] was 5.70.
As for `CCCCCCCCC(C)[C@H](OC(C)=O)[C@H](C)C(=O)N1CCC[C@H]1C(=O)O` (stereo partly drawn) [TUMONOIC ACID F], the outcome in the test with Plasmodium falciparum [1] was inactive. In the test with Vibrio harveyi, this compound had a pIC50 of 4.21.
